According to patent US20230339981A1, “KRAS G12D MODULATING COMPOUNDS” (priority 2022, published 2023):

Key:
GP2D (KRAS G12D) cells = test: 2D cell viability assay (CellTiter-Glo); assay type: cell-based; details: GP2d, 96 h, 4 days
Summary of the method: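 Viability was read by CellTiter-Glo after 4 days at 37 °C of 2D culture of KRAS G12D GP2D cells (1000/well, RPMI, 10% FBS) on pre-spotted threefold compound dilutions. EC50 was fitted with a sigmoidal dose-response model as the point of half-maximal luminescence loss.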

AsPC-1 (KRAS G12D) cells = test: 3D cell viability assay (spheroids, CellTiter-Glo 3D); assay type: cell-based; details: Homo sapiens, ASPC1, 96 h, AsPC-1 cells, 3D spheroids, 4 days
Summary of the method: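 AsPC-1 cells (1000/well) in DMEM with 10% FBS formed spheroids over 3 days at 37 °C in ultra-low attachment plates, then were treated with 1:3 serial dilutions for 4 days. Viability read by CellTiter-Glo 3D luminescence; EC50 as concentration giving 50% signal decrease, sigmoidal fit.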

GDP-loaded KRAS G12D = GDP-loaded KRAS G12D (Homo sapiens (Human), UniProt P01116, G12D); test: KRAS G12D (GDP) biochemical assay (TR-FRET probe displacement); assay type: binding; details: 2 hours
Sequence of GDP-loaded KRAS G12D (P01116-2 other isoform, or with tags, fused parts or gaps G12D): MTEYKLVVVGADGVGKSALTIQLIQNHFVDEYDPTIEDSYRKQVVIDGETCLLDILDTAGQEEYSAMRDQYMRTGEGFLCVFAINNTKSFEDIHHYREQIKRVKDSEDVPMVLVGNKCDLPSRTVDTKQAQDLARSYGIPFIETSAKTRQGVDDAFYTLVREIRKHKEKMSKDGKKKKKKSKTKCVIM
Summary of the method: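 TR-FRET probe displacement: 1:3 DMSO serial dilutions pre-incubated 30 min with GDP-bound KRAS G12D, followed by Eu-streptavidin/probe for 2 h at room temperature (Hepes pH 7.4, NaCl, MgCl2, Tween-20 buffer). IC50 defined as concentration halving TR-FRET ratio, from sigmoidal dose-response fit.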

| SMILES | EC50 (GP2D (KRAS G12D) cells) | EC50 (AsPC-1 (KRAS G12D) cells) | IC50 (GDP-loaded KRAS G12D) |
| --- | --- | --- | --- |
| C#Cc1c(F)ccc2cc(O)cc(-c3nc4c5c(nc(OCC6(CN7CCC(OC(F)(F)F)CC7)CC6)nc5c3F)N3C[C@H]5CC[C@H](N5)[C@H]3CCC4)c12 [Example 161, 5-ethynyl-6-fluoro-4-((6aR,7S,10R)-1-fluoro-13-((1-((4-(trifluoromethoxy)piperidin-1-yl)methyl)cyclopropyl)methoxy)-5,6,6a,7,8,9,10,11-octahydro-4H-3,11a,12,14,15-pentaaza-7,10-methanocyclohepta[4,5]cycloocta[1,2,3-de]naphthalen-2-yl)naphthalen-2-ol] | 0.3 nM | 23 nM | 0.3 nM |
| C#Cc1c(F)ccc2cc(O)cc(-c3nc4c5c(nc(OC[C@@]67CCCN6C[C@H](F)C7)nc5c3F)N3C[C@H]5CC[C@H](N5)[C@@H]3CCC4)c12 [Example 132, 5-ethynyl-6-fluoro-4-((6aS,7S,10R)-1-fluoro-13-(((2R,7aS)-2-fluorotetrahydro-1H-pyrrolizin-7a(5H)-yl)methoxy)-5,6,6a,7,8,9,10,11-octahydro-4H-3,11a,12,14,15-pentaaza-7,10-methanocyclohepta[4,5]cycloocta[1,2,3-de]naphthalen-2-yl)naphthalen-2-ol] | 2.2 nM | 50 nM | 0.2 nM |
| C#Cc1c(F)ccc2cc(O)cc(-c3nc4c5c(nc(OC[C@@]67CCCN6CC(OC(F)(F)F)C7)nc5c3F)N3C[C@H]5CC[C@H](N5)[C@H]3CC4)c12 (stereo partly drawn) [Example 139, 5-ethynyl-6-fluoro-4-((5aR,6S,9R)-1-fluoro-12-((cis-2-(trifluoromethoxy)tetrahydro-1H-pyrrolizin-7a(5H)-yl)methoxy)-4,5,5a,6,7,8,9,10-octahydro-3,10a,11,13,14-pentaaza-6,9-methanonaphtho[1,8-ab]heptalen-2-yl)naphthalen-2-ol] | 0.6 nM | 4.2 nM | 0.1 nM |
| C#Cc1c(F)ccc2cc(O)cc(-c3nc4c5c(nc(OCC6(CN7CCC(OC(F)(F)F)CC7)CC6)nc5c3F)N3C[C@H]5CC[C@H](N5)[C@H]3CC4)c12 [Example 106, 5-ethynyl-6-fluoro-4-((5aR,6S,9R)-1-fluoro-12-((1-((4-(trifluoromethoxy)piperidin-1-yl)methyl)cyclopropyl)methoxy)-4,5,5a,6,7,8,9,10-octahydro-3,10a,11,13,14-pentaaza-6,9-methanonaphtho[1,8-ab]heptalen-2-yl)naphthalen-2-ol] | 1.9 nM | 8.2 nM | 0.2 nM |
| C#Cc1c(F)ccc2cccc(-c3nc4c5c(nc(OC[C@@]67CCCN6C[C@H](F)C7)nc5c3F)N3C[C@H]5CC[C@H](N5)[C@H]3[C@H](CC)O4)c12 [Example 169, (5S,5aS,6S,9R)-5-ethyl-2-(8-ethynyl-7-fluoronaphthalen-1-yl)-1-fluoro-12-(((2R,7aS)-2-fluorotetrahydro-1H-pyrrolizin-7a(5H)-yl)methoxy)-5a,6,7,8,9,10-hexahydro-5H-4-oxa-3,10a,11,13,14-pentaaza-6,9-methanonaphtho[1,8-ab]heptalene] | 26.5 nM | 190 nM | 0.8 nM |
| C#Cc1c(F)ccc2cc(O)cc(-c3nc4c5c(nc(OCC6(CN7CCC(CC(F)(F)F)CC7)CC6)nc5c3F)N3C[C@H]5CC[C@H](N5)[C@H]3CC4)c12 [Example 167, 5-ethynyl-6-fluoro-4-((5aR,6S,9R)-1-fluoro-12-((1-((4-(2,2,2-trifluoroethyl)piperidin-1-yl)methyl)cyclopropyl)methoxy)-4,5,5a,6,7,8,9,10-octahydro-3,10a,11,13,14-pentaaza-6,9-methanonaphtho[1,8-ab]heptalen-2-yl)naphthalen-2-ol] | 0.7 nM | 32 nM | < 0.1 nM |
| C#Cc1c(F)ccc2cc(O)cc(-c3nc4c5c(nc(OCC6(CN7CCC(OC)(C(F)(F)F)CC7)CC6)nc5c3F)N3C[C@H]5CC[C@H](N5)[C@H]3CC4)c12 [Example 168, 5-ethynyl-6-fluoro-4-((5aR,6S,9R)-1-fluoro-12-((1-((4-methoxy-4-(trifluoromethyl)piperidin-1-yl)methyl)cyclopropyl)methoxy)-4,5,5a,6,7,8,9,10-octahydro-3,10a,11,13,14-pentaaza-6,9-methanonaphtho[1,8-ab]heptalen-2-yl)naphthalen-2-ol] | 0.5 nM | 24 nM | 0.2 nM |
| C#Cc1c(F)ccc2cc(O)cc(-c3nc4c5c(nc(OC[C@@]67CCCN6[C@H](COc6ncccc6OC(F)(F)F)CC7)nc5c3F)N3C[C@H]5CC[C@H](N5)[C@H]3CC4)c12 [Example 160, 5-ethynyl-6-fluoro-4-((5aR,6S,9R)-1-fluoro-12-(((3S,7aS)-3-(((3-(trifluoromethoxy)pyridin-2-yl)oxy)methyl)tetrahydro-1H-pyrrolizin-7a(5H)-yl)methoxy)-4,5,5a,6,7,8,9,10-octahydro-3,10a,11,13,14-pentaaza-6,9-methanonaphtho[1,8-ab]heptalen-2-yl)naphthalen-2-ol] | 1.4 nM | 16 nM | 0.2 nM |
| C#Cc1c(F)ccc2cccc(-c3nc4c5c(nc(OC[C@@]67CCCN6C[C@H](F)C7)nc5c3F)N3C[C@H]5CC[C@H](N5)[C@H]3C[C@@H]4F)c12 [Example 172, (4S,5aR,6S,9R)-2-(8-ethynyl-7-fluoronaphthalen-1-yl)-1,4-difluoro-12-(((2R,7aS)-2-fluorotetrahydro-1H-pyrrolizin-7a(5H)-yl)methoxy)-4,5,5a,6,7,8,9,10-octahydro-3,10a,11,13,14-pentaaza-6,9-methanonaphtho[1,8-ab]heptalene] | 65.3 nM | 480 nM | 3.5 nM |
| C#Cc1c(F)ccc2cccc(-c3nc4c5c(nc(OC[C@@]67CCCN6[C@H](COC(C6CC6)C(F)(F)F)CC7)nc5c3F)N3C[C@H]5CC[C@H](N5)[C@H]3CC4)c12 (stereo partly drawn) [Example 111, (5aR,6S,9R)-12-(((3S,7aS)-3-((1-cyclopropyl-2,2,2-trifluoroethoxy)methyl)tetrahydro-1H-pyrrolizin-7a(5H)-yl)methoxy)-2-(8-ethynyl-7-fluoronaphthalen-1-yl)-1-fluoro-4,5,5a,6,7,8,9,10-octahydro-3,10a,11,13,14-pentaaza-6,9-methanonaphtho[1,8-ab]heptalene] | 69.9 nM | 360 nM | 0.7 nM |
| C#Cc1c(F)ccc2cc(O)cc(-c3nc4c5c(nc(OC[C@@]67CCCN6C[C@H](F)C7)nc5c3F)N3C[C@H]5CC[C@H](N5)C3C[C@H]4C)c12 (stereo in doubt) [Example 96, 5-ethynyl-6-fluoro-4-((4R,5aS,6S,9R)-1-fluoro-12-(((2R,7aS)-2-fluorotetrahydro-1H-pyrrolizin-7a(5H)-yl)methoxy)-4-methyl-4,5,5a,6,7,8,9,10-octahydro-3,10a,11,13,14-pentaaza-6,9-methanonaphtho[1,8-ab]heptalen-2-yl)naphthalen-2-ol] | 0.5 nM | 1.9 nM | 0.3 nM |
| C#Cc1c(F)ccc2cccc(-c3nc4c5c(nc(OC[C@@]67CCCN6C[C@H](F)C7)nc5c3F)N3C[C@H]5CC[C@H](N5)[C@H]3CC4)c12 [Example 23, (5aR,6S,9R)-2-(8-ethynyl-7-fluoronaphthalen-1-yl)-1-fluoro-12-(((2R,7aS)-2-fluorotetrahydro-1H-pyrrolizin-7a(5H)-yl)methoxy)-4,5,5a,6,7,8,9,10-octahydro-3,10a,11,13,14-pentaaza-6,9-methanonaphtho[1,8-ab]heptalene] | 9 nM | 31 nM | 1 nM |
| C#Cc1c(F)ccc2cc(O)cc(-c3nc4c5c(nc(OC[C@@]67CCCN6[C@H](COc6ccnc(C(F)(F)F)n6)CC7)nc5c3F)N3C[C@H]5CC[C@H](N5)[C@H]3CC4)c12 [Example 148, 5-ethynyl-6-fluoro-4-((5aR,6S,9R)-1-fluoro-12-(((3S,7aS)-3-(((2-(trifluoromethyl)pyrimidin-4-yl)oxy)methyl)tetrahydro-1H-pyrrolizin-7a(5H)-yl)methoxy)-4,5,5a,6,7,8,9,1O-octahydro-3,10a,11,13,14-pentaaza-6,9-methanonaphtho[1,8-ab]heptalen-2-yl)naphthalen-2-ol] | 0.7 nM | 7.7 nM | 0.1 nM |
| C[C@H]1C[C@@H]2[C@@H]3CC[C@H](CN2c2nc(OC[C@@]45CCCN4C[C@H](F)C5)nc4c(F)c(-c5cc(O)cc6ccc(F)c(F)c56)nc1c24)N3 [Example 81, 5,6-difluoro-4-((4S,5aR,6S,9R)-1-fluoro-12-(((2R,7aS)-2-fluorotetrahydro-1H-pyrrolizin-7a(5H)-yl)methoxy)-4-methyl-4,5,5a,6,7,8,9,10-octahydro-3,10a,11,13,14-pentaaza-6,9-methanonaphtho[1,8-ab]heptalen-2-yl)naphthalen-2-ol] | 2.8 nM | 18 nM | 0.2 nM |
| C#Cc1c(F)ccc2cccc(-c3nc4c5c(nc(OC[C@@]67CCCN6C[C@H](F)C7)nc5c3F)N3C[C@H]5CC[C@H](N5)[C@H]3C[C@H]4C)c12 [Example 95, (4R,5aS,6S,9R)-2-(8-ethynyl-7-fluoronaphthalen-1-yl)-1-fluoro-12-(((2R,7aS)-2-fluorotetrahydro-11H-pyrrolizin-7a(5H)-yl)methoxy)-4-methyl-4,5,5a,6,7,8,9,10-octahydro-3,10a,11,13,14-pentaaza-6,9-methanonaphtho[1,8-ab]heptalene] | 31.9 nM | 200 nM | 0.6 nM |
